Reference: US20030078190A1 (priority 2001, published 2003)
Where “and” joins values, the source holds several entries; their conditions need not be identical. Equal entries are not always repeated. Entries after “also recorded” stand apart in the source; their conditions may differ. Where two headings read alike, the source gives them in different places. Marks after values point to notes of the source that are not given here.

What was measured:
tissue ACE = tissue ACE (Homo sapiens, UniProt P12821); conditions: compared with other ACEI (e.g., enalapril); due to lipophilic properties; cited from earlier work
tissue ACE, sequence (P12821 30-1306): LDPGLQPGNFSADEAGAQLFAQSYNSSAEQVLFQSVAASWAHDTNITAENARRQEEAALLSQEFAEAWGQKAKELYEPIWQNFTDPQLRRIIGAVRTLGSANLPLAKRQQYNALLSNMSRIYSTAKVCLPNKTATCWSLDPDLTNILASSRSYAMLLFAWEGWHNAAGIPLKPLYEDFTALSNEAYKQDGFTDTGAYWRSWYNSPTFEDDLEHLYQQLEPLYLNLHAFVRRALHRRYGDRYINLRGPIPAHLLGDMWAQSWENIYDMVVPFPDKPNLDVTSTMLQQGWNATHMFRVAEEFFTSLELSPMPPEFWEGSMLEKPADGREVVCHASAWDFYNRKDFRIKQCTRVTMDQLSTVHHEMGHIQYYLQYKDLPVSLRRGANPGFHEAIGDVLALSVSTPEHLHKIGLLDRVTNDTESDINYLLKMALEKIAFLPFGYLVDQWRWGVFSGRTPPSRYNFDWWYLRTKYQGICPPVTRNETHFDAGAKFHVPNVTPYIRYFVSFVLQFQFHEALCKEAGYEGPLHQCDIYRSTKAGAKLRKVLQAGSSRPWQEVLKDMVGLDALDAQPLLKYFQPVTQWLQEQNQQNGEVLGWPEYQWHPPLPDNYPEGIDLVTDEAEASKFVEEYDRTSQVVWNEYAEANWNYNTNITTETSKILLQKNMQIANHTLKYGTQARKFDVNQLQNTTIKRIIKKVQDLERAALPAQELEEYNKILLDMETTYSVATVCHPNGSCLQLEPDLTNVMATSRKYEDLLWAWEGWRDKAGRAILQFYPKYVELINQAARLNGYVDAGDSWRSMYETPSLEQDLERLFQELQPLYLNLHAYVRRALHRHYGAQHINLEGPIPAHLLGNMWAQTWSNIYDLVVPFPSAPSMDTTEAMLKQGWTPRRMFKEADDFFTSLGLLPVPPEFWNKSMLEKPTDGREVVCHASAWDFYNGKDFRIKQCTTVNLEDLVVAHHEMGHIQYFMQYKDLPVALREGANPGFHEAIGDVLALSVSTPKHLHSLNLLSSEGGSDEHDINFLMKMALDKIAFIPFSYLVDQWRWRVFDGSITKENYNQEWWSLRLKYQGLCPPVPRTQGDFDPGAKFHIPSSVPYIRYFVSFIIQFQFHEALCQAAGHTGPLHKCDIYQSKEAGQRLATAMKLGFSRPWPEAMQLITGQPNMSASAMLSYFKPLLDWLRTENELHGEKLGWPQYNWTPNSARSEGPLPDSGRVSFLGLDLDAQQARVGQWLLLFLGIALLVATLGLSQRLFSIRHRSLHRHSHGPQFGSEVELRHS

hypertensive patients = conditions: cited from earlier work; for BP reductions in comparative short-term trials between ACEI and ARBs: in vivo
[1] = test system: normotensive, proteinuric patients with IgA nephropathy; conditions: increasing dose of lisinopril; cited from earlier work
AT1 receptor = biological target: T1, AT1 receptor (Homo sapiens, UniProt P30556); conditions: cited from earlier work
T1 sequence (P30556 1-359): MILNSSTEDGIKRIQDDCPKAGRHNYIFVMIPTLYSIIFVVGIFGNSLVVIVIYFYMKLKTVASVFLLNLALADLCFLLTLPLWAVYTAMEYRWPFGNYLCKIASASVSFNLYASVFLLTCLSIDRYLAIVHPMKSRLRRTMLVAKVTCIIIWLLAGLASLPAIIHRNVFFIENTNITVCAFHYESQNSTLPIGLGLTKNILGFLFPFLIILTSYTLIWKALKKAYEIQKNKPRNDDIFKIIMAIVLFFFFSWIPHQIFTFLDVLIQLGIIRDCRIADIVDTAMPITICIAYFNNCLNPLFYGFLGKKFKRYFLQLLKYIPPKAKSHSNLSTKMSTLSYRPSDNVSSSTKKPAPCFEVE

[2] = test system: patients with heavy proteinuria (>1.5 g/day); test: 24-hour urinary protein excretion with high-dose candesartan cilexetil (Example 1); assay type: in vivo, human
Procedure: The optimal doses of ACEIs and/or ARBs for maximal reduction in urinary protein excretion are not known. Moreover, beneficial effects from ARBs, such as tissue protection owing to a more complete blockade of the RAAS, may be independent of blood pressure-lowering by ARBs. This investigation was designed to evaluate whether increasing the dose of candesartan cilexetil, in subjects already on the FDA's maximum recommended daily doses of 32 mg, would induce a further reduction in 24-hour urinary protein excretion in patients with heavy proteinuria (urinary protein excretion >1.5 g/day; mean 4.4±2 g/day).
(§1) Ten older patients (67±10 years; 80% male) with heavy proteinuria (>1.5 g/day) were started on 16 or 32 mg of candesartan cilexetil daily. Several patients had renal biopsies performed. Eight patients had nephrotic syndrome, four of whom had diabetic nephropathy, two had focal sclerosis, one had membranous nephropathy, and one had postinfectious nephropathy. The two other patients had nephrosclerosis, one being extremely severe and associated with moderate interstitial disease. Most of the patients were already receiving multiple medications for optimal BP control which included the following: calcium channel blockers (CCBs, 80%), diuretics (70%), beta blockers (40%), alpha blockers (40%), and ACEI (40%). Additional concurrent medications included lipid-lowering agents, anti-ischemic drugs and hypoglycemic agents. No effort was made to standardize any class of medications other than ARBs, and no other controls, such as sodium restriction, were instituted as patients were treated using standard office practice procedures.
(§2) After 1-2 months of therapy, the dose of candesartan cilexetil was titrated upwards (at 16-32 mg dose increments) to 96 mg/d, while 24-hour urine samples were obtained to measure protein and creatinine. The candesartan doses were increased independently of the need for BP control. Subsequently, the effect of increased doses of candesartan on 24-hour urinary protein and creatinine excretion, BP, serum creatinine and potassium were serially measured.
(§3) Baseline data was utilized either prospectively or from past patient records collected close to the time of the clinical observation period. […] Thus, no statistical analysis was performed but general trends are noted.

[3] = test system: subjects with both diabetic and non-diabetic renal disease; test: Preliminary unpublished observations: microalbuminuria under supramaximal ARB doses; assay type: in vivo, human
Text: Strategies to enhance blockade of the tissue RAAS may result in greater renoprotective effects, by further reducing intraglomerular hydrostatic pressure and glomerular hypertrophy, and providing additional improvements in glomerular permselectivity. […] Utilizing ARBs rather than ACEI was chosen owing to evidence that ARBs provide enhanced tissue RAAS blockade by prevention of the ACE escape phenomenon and thus more complete blockade of angiotensin II (AII) produced by both ACE and non-ACE pathways.

[4] = test system: normotensive patients with IgA nephropathy; conditions: cited from earlier work
[5] = test system: patients with heavy proteinuria (>1.5 g/day); test: Blood pressure, serum creatinine, serum potassium and tolerability during candesartan dose titration (Example 1); assay type: in vivo, human
Procedure: as §1, §2, §3

[6] = test system: patients with dilated aortic roots; test: Aortic root size by M-mode echocardiography under ARB therapy (Example 10); assay type: in vivo, human
Text: Since regression of the aortic root dilatation on echocardiogram was so unusual, a study was undertaken to evaluate other individuals with aortic root dilatation to determine whether aortic root aneurysms or dilatation could be reduced using ARBs. […] In order to evaluate one group of homogeneous subjects, the following were inclusion criteria: (1) same modality of testing to determine the thickness of the aortic root; (2) same instrument; (3) same interpreter of echocardiogram; (4) subjects needed to be on medication (antihypertensive including ARB or ARB if normotensive); (5) at least 9 months of ARB therapy; and (6) the disease was strictly aneurysm, not CAD or CHF. Applying the above inclusion criteria, a group of 15 subjects was selected for analysis. The group included 13 men and 2 women, aged 66.4±13.3 years and weighing 188.8±29.6 pounds. Aortic root sizes were measured using M-mode echocardiography with a leading-edge-to-leading-edge measurement of the maximal distance between the anterior aortic root wall and the posterior aortic root wall, measured at a level immediately above the cusps at end diastole. The standard deviation for intra-observer error was ±2 mm. Interval changes in aortic root size were measured as initial value-most recent value, where a positive resulting value indicated a corresponding decrease in aortic root size over the interval.

For `CCOC(=O)[C@H](CCc1ccccc1)N[C@@H](C)C(=O)N1Cc2ccccc2C[C@H]1C(=O)O` [quinapril], the “Ability to block tissue ACE activity” value (tissue ACE) is given as “better able to block tissue ACE activity”.

In the case of `CCOC(=O)[C@H](CCc1ccccc1)N[C@@H](C)C(=O)N1[C@H](C(=O)O)C[C@@H]2CCC[C@@H]21` [ramipril], the “Additive antihypertensive response to add-on therapy” value (hypertensive patients; ACEI (ramipril) added to existing ARB (losartan) therapy) is listed as “small and not significant”.

For `NCCCC[C@H](N[C@@H](CCc1ccccc1)C(=O)O)C(=O)N1CCC[C@H]1C(=O)O` [lisinopril], the “BP reductions in comparative short-term trials between ACEI and ARBs” value (hypertensive patients) is given as “equivalent BP reductions” and the “Renal protective effect of increasing the dose” value [1] is given as “additional renal protective effects, independent of any BP reductions”.

In the case of `CCCCc1ncc(/C=C(\Cc2cccs2)C(=O)O)n1Cc1ccc(C(=O)O)cc1` [eprosartan], the “Affinity for the AT1 receptor” value (AT1 receptor) is given as “lower affinity” and the “Type of antagonism at the AT1 receptor” value (AT1 receptor) is given as “surmountable”.

In the case of `CCCCC1=NC2(CCCC2)C(=O)N1Cc1ccc(-c2ccccc2-c2nnn[nH]2)cc1` [irbesartan], the “Affinity for the AT1 receptor” value (AT1 receptor) is given as “high affinity”, the “Type of antagonism at the AT1 receptor” value (AT1 receptor) is given as “insurmountable” and the “BP reductions in comparative short-term trials between ACEI and ARBs” value (hypertensive patients) is given as “equivalent BP reductions”. The “Protein Excretion (24-hour urinary protein excretion rate)” value ([2]; irbesartan 150 mg, patient 7) was 0.5** g/day, the “Protein Excretion (24-hour urinary protein excretion rate)” value ([2]; irbesartan 300 mg, patient 6) was 0.4^§ g/day and the Effect on microalbuminuria [3] was “additional reductions in microalbuminuria”.

For `CCOC(=O)[C@H](CCc1ccccc1)N[C@@H](C)C(=O)N1CCC[C@H]1C(=O)O` [enalapril], the “BP reductions in comparative short-term trials between ACEI and ARBs” value (hypertensive patients) is given as “equivalent BP reductions”.

In the case of `CCCCC(=O)N(Cc1ccc(-c2ccccc2-c2nnn[nH]2)cc1)[C@H](C(=O)O)C(C)C` [valsartan], the “BP reductions in comparative short-term trials between ACEI and ARBs” value (hypertensive patients) is listed as “equivalent BP reductions” and the Effect on microalbuminuria [3] is listed as “additional reductions in microalbuminuria”.

In the case of `CCCc1nc2c(C)cc(-c3nc4ccccc4n3C)cc2n1Cc1ccc(-c2ccccc2C(=O)O)cc1` [telmisartan], the “BP reductions in comparative short-term trials between ACEI and ARBs” value (hypertensive patients) is given as “equivalent BP reductions”.

For `CCCCc1nc(Cl)c(CO)n1Cc1ccc(-c2ccccc2-c2nn[nH]n2)cc1` [losartan], the “Type of antagonism at the AT1 receptor” value (AT1 receptor) is listed as “surmountable”, the “Type of antagonism at the AT1 receptor” value (AT1 receptor; listed as Losartan) is listed as “competitive antagonist” and the “BP reductions compared with ACEI” value (hypertensive patients; a few studies) is listed as “smaller BP reductions”. For the same molecule, the “BP reductions in comparative short-term trials between ACEI and ARBs” value (hypertensive patients) was “equivalent BP reductions”, the “Antihypertensive response to add-on therapy” value (hypertensive patients; losartan 25-50 mg/d added to existing ramipril 2.5-5 mg/d, four-week study of 30 hypertensives) was “enhanced” and the “Protein Excretion (24-hour urinary protein excretion rate)” value ([2]; losartan 50 mg, patient 6) was 1.1^+ g/day. The “Change of urinary protein excretion on monotherapy” value ([4]; either drug as monotherapy, ARB = losartan) was −27%, the “Reduction of urinary protein excretion on combined ACEI and ARB therapy” value ([4]; losartan 50 mg/day added to a moderate dose of an ACEI) was 69% and the Effect on microalbuminuria [3] was “additional reductions in microalbuminuria”.

In the case of `CCOc1nc2cccc(C(=O)O)c2n1Cc1ccc(-c2ccccc2-c2nnn[nH]2)cc1` [candesartan], the Tolerability ([5]; 96 mg/d) was “well tolerated, metabolically neutral”, the “Increase in serum creatinine” value ([5]; at the higher doses of candesartan, attributable primarily to two of the ten patients) was 0.5 to 0.7 mg/dL and the Serum potassium ([5]; throughout the dosing range of candesartan) was 4.3 to 4.5 mmol/L. The “Interval change in aortic root size (initial value minus most recent value)” value ([6]; one hypertensive subject, 128 mg/d) was 8 mm, the “Interval change in aortic root size (initial value minus most recent value)” value ([6]; one normotensive subject, 64 mg/d) was 12 mm and the “Decrease in aortic root size” value ([6]; ten of 15 subjects, at least 9 months of ARB therapy) was “more than 2 mm”.

In the case of `CCOc1nc2cccc(C(=O)OC(C)OC(=O)OC3CCCCC3)c2n1Cc1ccc(-c2ccccc2-c2nnn[nH]2)cc1` (stereo not drawn) [Candesartan cilexetil, candesartan cilexetil], the Safety and tolerability ([5]; doses between 32 and 96 mg) was “safe, well-tolerated”, the “Protein Excretion, Mean” value ([2]; 16 mg/day column, mean of N=4 (includes one losartan 50 mg and one irbesartan 150 mg value)) was 2.8 g/day and the “Protein Excretion, Mean” value ([2]; 32 mg/day column, mean of N=10 (includes one irbesartan 300 mg value)) was 2.7 g/day. For the same molecule, the “Protein Excretion (24-hour urinary protein excretion rate)” value ([2]; candesartan cilexetil 16 mg/day, individual patients) was 3.2 g/day and 6.4 g/day, the “Protein Excretion (24-hour urinary protein excretion rate)” value ([2]; candesartan cilexetil 32 mg/day, individual patients) was 1.1 g/day and 2.0 g/day and 0.8 g/day and 4.9 g/day and 3.3 g/day and 2.7 g/day and 6.4 g/day and 4.6 g/day and 1.2 g/day and the “Protein Excretion (24-hour urinary protein excretion rate)” value ([2]; candesartan cilexetil 48 mg/day, individual patients) was 0.9 g/day and 0.2 g/day (2×) and 2.6 g/day and 1.7 g/day and 2.9 g/day and 5.8 g/day and 1.2 g/day. The “Protein Excretion, Mean” value ([2]; candesartan cilexetil 48 mg/day, mean of N=8) was 1.9 g/day, the “Protein Excretion (24-hour urinary protein excretion rate)” value ([2]; candesartan cilexetil 64 mg/day, individual patients) was 1.7 g/day and 1.1 g/day and 0.4 g/day and 0.2 g/day and 1.3 g/day and 3.0 g/day and 4.7 g/day and 0.7 g/day and the “Protein Excretion, Mean” value ([2]; candesartan cilexetil 64 mg/day, mean of N=8) was 1.6 g/day. For the same molecule, the “Protein Excretion (24-hour urinary protein excretion rate)” value ([2]; candesartan cilexetil 80 mg/day, individual patients) was 0.9 g/day and 0.5 g/day and 0.3 g/day and 1.6 g/day and 3.4 g/day and 1.4 g/day and 2.4 g/day and 0.6 g/day, the “Protein Excretion, Mean” value ([2]; candesartan cilexetil 80 mg/day, mean of N=8) was 1.4 g/day and the “Protein Excretion (24-hour urinary protein excretion rate)” value ([2]; candesartan cilexetil 96 mg/day, individual patients) was 0.6 g/day and 0.2 g/day and 1.8 g/day and 2.3 g/day and 0.7 g/day. For the same molecule, the “Protein Excretion, Mean” value ([2]; candesartan cilexetil 96 mg/day, mean of N=5) was 1.1 g/day and the “Effect on 24-hour urinary protein excretion beyond the recommended maximum dose” value ([2]; dose extended beyond 32 mg/d) was “progressive reductions in 24-hour urinary protein excretion; also recorded: further reductions in urinary protein excretion in all subjects”.
